These are literature values, as cited in patent US20150017236A1, “PHARMACEUTICAL COMPOSITIONS OF THYROID HORMONE” (priority 2013, published 2015).

For the series the following is noted: tablet formulation of levothyroxine sodium; storage.

As to `N[C@@H](Cc1cc(I)c(Oc2cc(I)c(O)c(I)c2)c(I)c1)C(=O)O` [levothyroxine sodium, sodium (S)-2-amino-3-[4-(4-hydroxy-3,5-diiodphenoxy)-3,5-diiodophenyl]propionate], the decomposition of levothyroxine entry is on record as “approximately 1 percent per month”.
